{
  "source": "patent US10632111B2",
  "about": "(priority 2014, dated 2020)",
  "assay": "Pharmacokinetic properties in SD rats after intramuscular injection",
  "settings": "male SD rats, i.m., 90 mg/kg (based on donepezil), oil solvent, plasma, LC/MS/MS",
  "from_the_text": "Pharmacokinetic Properties of Compounds of the Present Invention Administered to Rats\nIn the present embodiment, male SD rats (SPF grade), aged […] and weighing 180 to 220 g, were purchased from Shanghai Slack laboratory Animal Co., Ltd. Throughout the process of the experiment, give the rats free access to food and water.\nAdopting grouping of random grouping design, the SD rats for experiments were grouped according to gender and body weight.\nThe whole blood was collected and placed on ice, followed by centrifugation at 4° C., 8000 rpm and 5 min to collect plasma The plasma was transferred to a 96-well plate and stored at −20° C. until LC-MS/MS examination. Drug concentrations in EDTA (4 mM) anticoagulated plasma of SD rats were determined using LC/MS/MS (Agilent6460). Using WinNonlin 5.2 software, calculate respective relevant pharmacokinetic parameters of each group at each time point after administration according to statistical moment theory.\nt1/2 was calculated by the formula t1/2=0.693/λz; λz is an end elimination rate constant derived from the logarithmic concentration—the straight part of the end of time curve, which can be derived from the slope of the logarithmic concentration—the straight part of the end of time curve.",
  "data": [
    {"molecule": "CCCCCCC(=O)OC1=C(CC2CCN(Cc3ccccc3)CC2)Cc2cc(OC)c(OC)cc21", "note": "[Compound 3, Donepezil Heptanoate]", "values": [
      {"measurement": "Cmax", "setting": "measured value", "value": 44.11, "unit": "ng/mL"},
      {"measurement": "Tmax", "setting": "measured value", "value": 18.00, "unit": "h"},
      {"measurement": "T1/2", "setting": "t1/2=0.693/λz", "value": 314.18, "unit": "h"}
    ]}
  ]
}
